Tests used:
precocious puberty = assay: Taiwan Puberty Longitudinal Study cohort: sweetener intake and risk of precocious puberty (logistic regression); format: in vivo, human; conditions: for OR of precocious puberty: adjusted model
Description: The Taiwan Puberty Longitudinal Study (TPLS) was a multicenter project involving several hospitals in Taiwan. A total of more than 2,000 female adolescents aged from 6 to 16 years and male adolescents aged from 9 to 17 years had been recruited from pediatric endocrine clinics since 2018. Anthropometric measurements, pubertal stages exams, and interviews about physical activity and sleep quality were conducted quarterly. A comprehensive evaluation, including 24-hour food recall, fasting blood test, and parental interviews about their children's physical activity and sleep quality, was performed annually. Participants were followed up until reaching the late pubertal stages. Thorough market search, a comprehensive and semiquantitative food frequency questionnaire (FFQ), was created for glycyrrhizin intake evaluation in advance. A total of 39 glycyrrhizin-containing food and beverage products were listed in this non-nutritive sweetener food frequency questionnaire ([…])^[1]. The questionnaire was used to screen the level of glycyrrhizin consumption. The interval scale for frequency was measured as never or a number of times per day or per week. Glycyrrhizin consumption was described as the proportion relative to acceptable daily intake (ADI) set by the Joint FAO/WHO Expert Committee on Food Additives[2]. The glycyrrhizin exposure dose in % ADI was finally categorized as tertiles, ranging from T1 (0 to 0.0006), T2 (0.0006 to 0.002) to T3 (>0.002). […] Most of the added sugar came from sugar-sweetened beverages (SSB). The added-sugar exposure dose in % ADI was also categorized as tertiles, ranging from T1 (0 to 0.0013), T2 (0.0013 to 0.0044) to T3 (>0.0044). Precocious puberty (PP) was diagnosed in the presence of the following criteria: secondary sexual characteristics happen before the age of 8 years old, bone age advance greater than 2 years above chronological age, and peak luteinizing hormone (LH)≥5 after the gonadotropin-releasing hormone (GnRH) stimulation test^[3]. Body mass index (BMI) was calculated as weight in kilograms divided by height in meters squared and was then transformed into z-scores (zBMI) based on age- and sex-related reference charts for Taiwanese children^[4]. Participants were asked for their habitual activities, and the amount of time they spend for specific physical activities. The intensity of each activity was described as metabolic equivalent of task (MET)^[5]. Daily metabolic equivalent value (METD) was calculated by summarizing mean of the standard MET of each activity multiplied by the average daily duration. The sleep quality scores, ranging from 0 to 21, were assessed by the Pittsburgh Sleep Quality Index (PSQI) through a self-reported questionnaire^[6]. The total energy intake daily in kcal was estimated by the summary of energy intake from three major macronutrients, including carbohydrates, fat, and proteins. Parental education was assessed by interviews and classified as “senior high school and below,” “college,” or “graduate school and higher.” Odds ratios (ORs) for precocious puberty in participants consumed different doses of glycyrrhizin and added sugar were calculated from generalized linear models with logistic regression using glm( ) function. Models were adjusted for gender, age, zBMI, exercise time, sleep quality, total energy intake, and parental education. Atwo-tailed p-value of <0.05 was considered statistically significant. All analyses were performed using R software (version 4.0.2; RStudio; R Foundation for Statistical Computing, Inc., Boston, MA, USA).

[1] = test system: female neonate Sprague-Dawley rats; assay: Animal Experiment 1: puberty-related time points (vaginal opening, estrous cycle) in danazol-induced PP rats; format: in vivo
Description: A total of 129 female neonate Sprague-Dawley rats were housed in a humidity (67±1.5%) and temperature (24±2° C.)-controlled housing room of the Taipei Medical University's Laboratory Animal Center with a 12-hour light/dark cycle. They had free access to food and water.
(§1) Such rats were divided into Control, Danazol, MAG (monoammonium glycyrrhizinate), Danazol+Low-MAG (100 μg/kg/day), Danazol+Medium-MAG (200 μg/kg/day), and Danazol+High-MAG (400 μg/kg/day) groups. The day at birth was termed postnatal day (PND). Litters belonging to danazol-induced PP groups were given a single subcutaneous injection of 300 μg danazol (Sigma-Aldrich) dissolved in 30 μL vehicle composed of propylene glycerol and ethanol (1:1)^[7]. MAG was administered using oral gavage since PND 13. Offspring were weaned onto a normal chow diet and water at PND 21. Body weight was measured daily. The rats were examined daily for the vaginal opening, which was considered as a marker of pubertal onset.
(§2) MAG was prepared freshly at the beginning of the experiment daily by mixing MAG powder with sterilized water. The volume fed each day was calculated based on the MAG solubility (20 mg/mL), maximum volume tolerated (10 mL/kg/time), intended dose (either 100, 200, or 400 μg/kg/day), and the rat's body weight on that day. Those who were not in the MAG-fed groups were fed with the same volume of sterilized water. MAG doses were chosen based on existing guidelines for safe dosage in humans and previous work in animals. In more detail, the doses were about 5 to 20 times lower than the no-observed-adverse-effect-levels (NOAELs)^[8]. They reflect the normal physiological intake of this sweetener.
In this experiment, rats were fed with MAG daily until the end of experiment to maintain the long-term effect of drug tested. Vaginal smear was performed daily until they established three consecutive regular 4- or 5-day-cycles. The day of vaginal opening was the primary outcome. Moreover, the day of the setup of the regular cycle and the day of the establishment of 3 regular cycles were observed as secondary outcomes. The first day of diestrus or metestrus of the first cycle in the 3 consecutive regular estrous cycles was determined as the day of the setup of the regular cycle^[7]. The last day of diestrus of the last cycle in the 3 consecutive regular estrous cycles was determined as the day of establishment of 3 regular cycles^[9].
(§3) Data were presented as means±standard deviation. Statistical analysis was performed on raw data using one-way analysis of variance (ANOVA). Comparisons among groups were made using the post hoc Tukey-HSD test. Day of vaginal opening, day of setup of regular cycle and day of establishment of 3 regular cycles were analyzed using survival analysis and were compared using the log-rank test. A two-tailed p-value<0.05 was considered significant.

[2] = test system: female neonate Sprague-Dawley rats; assay: Animal Experiment 2: serum estrogen level on sacrifice day; format: in vivo
Text: In this experiment, rats were raised until the model group (danazol) experienced vaginal opening. At that time, all of the rats were then sacrificed to (1) compare the differences between serum estrogen and luteinizing hormone (LH) levels; (2) compare the mRNA expression of GnRHa, k, Lin28a, Lin28b, let7a, let7b, GPR54, netrin-1, UNC5C, and MKRN3 in the hypothalamus using qPCR; and (3) compare the number of GnRH and kisspeptin neurons in the hypothalamus using immunohistochemistry (IHC).
(§4) Overnight fasting blood samples for glucose measurement were collected from tail veins two days before sacrifice. Blood samples for LH, estrogen, and other routine laboratory tests were collected from the abdominal aorta when sacrificing. Insulin resistance was then estimated using the triglyceride glucose (TyG) index. […] Also, the fecal samples were collected during these days to analyze gut microbiome, short chain fatty acids (SCFA), and reserve material for fecal microbiota transplantation (FMT) in Experiment 3.
Blood glucose in rodents was measured using the BioSystem glucose GOD/Peroxidase kit. LH levels were measured using the Enzo LH ELISA kit following the manufacturer's instructions. Samples for estrogen and other routine test were sent to a clinical laboratory.

[3] = test system: mice (recipient) raised in a specific-pathogen free environment; assay: Animal Experiment 3: fecal microbiota transplantation (FMT), day of vaginal opening; format: in vivo; conditions: Danazol group, n = 6
Description: In this experiment, the fecal material collected in Experiment 2 (from donor) was transplanted to mice (recipient) raised in a specific-pathogen free environment. Pathogen free mice model was established by feeding 25 mL of cocktail antibiotics, which contain 50 mg of ampicillin, 50 mg of neomycin, 50 mg of metronidazole, and 25 mg of vancomycin.
as §3

[4] = test system: female neonate Sprague-Dawley rats; assay: Body weight, reproductive organ coefficient weights, routine laboratory safety tests and TyG index in rats; format: in vivo
Description: as §1, §4
On the days of the vaginal opening in the model group, all animals were exsanguinated with normal saline following anesthesia. After perfusion, the hypothalamus was retrieved. Half of them were fixed in the 10% neutral-buffered formalin for IHC experiments, while the remaining half was embedded in RNAprotect reagent for qPCR experiments later. […]
Blood glucose in rodents was measured using the BioSystem glucose GOD/Peroxidase kit. LH levels were measured using the Enzo LH ELISA kit following the manufacturer's instructions. […]
Data were presented as means±standard deviation. […] Day of vaginal opening, day of setup of regular cycle and day of establishment of 3 regular cycles were analyzed using survival analysis and were compared using the log-rank test. […]

[5] = MAG solubility in sterilized water; format: physicochemical; conditions: MAG powder mixed with sterilized water
Description: as §2

[6] = Danazol group (single s.c. 300 μg danazol), n = 6
[7] = Danazol + High-MAG (400 μg/kg/day, oral gavage), n = 15
[8] = Danazol + Low-MAG (100 μg/kg/day, oral gavage), n = 8
[9] = Danazol + Med-MAG (200 μg/kg/day, oral gavage), n = 8
[10] = MAG group (no danazol), oral gavage since PND 13, n = 5

CC1(C)[C@@H](O[C@H]2O[C@H](C(=O)O)[C@@H](O)[C@H](O)[C@H]2O[C@@H]2O[C@H](C(=O)O)[C@@H](O)[C@H](O)[C@H]2O)CC[C@]2(C)[C@H]3C(=O)C=C4[C@@H]5C[C@@](C)(C(=O)O)CC[C@]5(C)CC[C@@]4(C)[C@]3(C)CC[C@@H]12 [Glycyrrhizin, glycyrrhizin]
OR of precocious puberty (precocious puberty; Female, exposure tertile T1 vs no intake): 0.479 | OR of precocious puberty (precocious puberty; Female, exposure tertile T2 vs no intake): 0.826 | OR of precocious puberty (precocious puberty; Female, exposure tertile T3 vs no intake): 0.969 | OR of precocious puberty (precocious puberty; Male, exposure tertile T1 vs no intake): 1.384 | OR of precocious puberty (precocious puberty; Male, exposure tertile T2 vs no intake): 0.422 | OR of precocious puberty (precocious puberty; Male, exposure tertile T3 vs no intake): 0.656 | OR of precocious puberty (precocious puberty; Total, exposure tertile T1 (% ADI: glycyrrhizin 0 to 0.0006, added sugar 0 to 0.0013) vs no intake): 0.607 | OR of precocious puberty (precocious puberty; Total, exposure tertile T2 (% ADI: glycyrrhizin 0.0006 to 0.002, added sugar 0.0013 to 0.0044) vs no intake): 0.687 | OR of precocious puberty (precocious puberty; Total, exposure tertile T3 (% ADI: glycyrrhizin >0.002, added sugar >0.0044) vs no intake): 0.857 | Risk of PP after full adjustment (precocious puberty; human cohort, consumption vs no intake): reduce the risk of PP

C#C[C@]1(O)CC[C@H]2[C@@H]3CCC4=Cc5oncc5C[C@]4(C)[C@H]3CC[C@@]21C [Danazol, danazol, reference compound]
Day of establishment of 3 regular cycles [1, 6]: 38.17 ± 1.17 | Day of setup of regular cycle [1, 6]: 27.67 ± 1.51 | Day of vaginal opening [1, 6]: 23.00 ± 0.00 | Serum estrogen level ([2]; Danazol group): trend towards higher values | Day of vaginal opening (PND) [3]: 24.33 PND

CC1(C)[C@@H](O[C@H]2O[C@H](C(=O)O)[C@@H](O)[C@H](O)[C@H]2O[C@@H]2O[C@H](C(=O)O)[C@@H](O)[C@H](O)[C@H]2O)CC[C@]2(C)[C@H]3C(=O)C=C4[C@@H]5C[C@@](C)(C(=O)O)CC[C@]5(C)CC[C@@]4(C)[C@]3(C)CC[C@@H]12.N [MAG, monoammonium glycyrrhizinate]
Day of establishment of 3 regular cycles [1, 7]: 41.47 ± 2.85 | Day of setup of regular cycle [1, 7]: 28.93 ± 3.62 | Day of vaginal opening [1, 7]: 24.00 ± 2.45 | Day of establishment of 3 regular cycles [1, 8]: 44.13 ± 3.68 | Day of setup of regular cycle [1, 8]: 31.50 ± 3.63 | Day of vaginal opening [1, 8]: 25.13 ± 3.60 | Day of establishment of 3 regular cycles [1, 9]: 45.88 ± 4.19 | Day of setup of regular cycle [1, 9]: 33.38 ± 4.07 | Day of vaginal opening [1, 9]: 27.50 ± 5.01 | Day of establishment of 3 regular cycles [1, 10]: 49.00 ± 2.55 | Day of setup of regular cycle [1, 10]: 37.40 ± 3.44 | Day of vaginal opening [1, 10]: 32.60 ± 2.07 | Protection against PP over the whole estrous cycle ([1]; danazol-induced PP rats, most obvious effects with Low- and Medium-MAG groups): protected rats against PP following a dose-dependent manner | Liver enzyme, renal function, albumin, electrolyte panel and lipid profiles ([4]; all p>0.05): no safety concerns | Body weight during puberty ([4]; among groups, p=0.448): no difference | Insulin resistance (TyG index) at the end of the experiment ([4]; between groups, High-MAG vs Medium-MAG p=0.048): did not differ between groups, with the exception of a higher value in High-MAG than that of Medium-MAG | Serum estrogen level ([2]; High-MAG group (danazol + 400 μg/kg/day)): trend towards higher values | MAG solubility [5]: 20 mg/mL

Reference: patent US20240350521A1, “COMPOSITIONS AND METHODS FOR PREVENTING OR TREATING PRECOCIOUS PUBERTY” (TAIPEI MEDICAL UNIVERSITY, priority 2023, published 2024)
